For data set [1], the system named is pentagastrin-stimulated acid secretion of the perfused rat stomach. The data set is described as follows: Secretion-inhibiting action on the perfused rat stomach (pentagastrin-stimulated acid secretion, intraduodenal administration in vivo). Particulars: dose 1 μmol/kg i.d., anesthetized female CD rat; for inhibition in vivo at 1 µmol/kg: intraduodenal. From the text:
Testing of the Secretion-Inhibiting Action on the Perfused Rat Stomach
In Table A which follows, the influence of the compounds according to the invention on the pentagastrin-stimulated acid secretion of the perfused rat stomach after intraduodenal administration in vivo is shown.
The abdomen of anesthetized rats (CD rat, female, 200-250 g; 1.5 g/kg i.m. urethane) was opened after tracheotomy by a median upper abdominal incision and a PVC catheter was fixed transorally in the esophagus and another via the pylorus such that the ends of the tubes just projected into the gastric lumen. The catheter leading form the pylorus led outward into the right abdominal wall through a side opening.
After thorough rinsing (about 50-100 ml), warm (37° C.) physiological NaCl solution was continuously passed through the stomach (0.5 ml/min, pH 6.8-6.9; Braun-Unita I). The pH (pH meter 632, glass electrode EA 147; φ=5 mm, Metrohm) and, by titration with a freshly prepared 0.01 N NaOH solution to pH 7 (Dosimat 665 Metrohm), the secreted HCl were determined in the effluent in each case collected at an interval of 15 minutes.
The gastric secretion was stimulated by continuous infusion of 1 μg/kg (=1.65 ml/h) of i.v. pentagastrin (left femoral vein) about 30 min after the end of the operation (i.e. after determination of 2 preliminary fractions). The substances to be tested were administered intraduodenally in a 2.5 ml/kg liquid volume 60 min after the start of the continuous pentagastrin infusion.
The body temperature of the animals was kept at a constant 37.8-38° C. by infrared irradiation and heat pads (automatic, stepless control by means of a rectal temperature sensor).

What is called inhibition in vivo is the change of the read-out against control, counted positive when it falls. A low value points to a weak effect. Broadly, the melting point is the temperature of the solid-liquid transition. The compound `Cc1nc2c(O[C@@H]3c4ccccc4C[C@H]3O)cc(C(=O)N(C)C)cc2n1C.O=C(O)C(=O)O` (relative stereo) [Example 10, 4-(trans-2,3-Dihydro-2-hydroxy-1-indenyloxy)-6-(N,N-dimethylaminocarbonyl)-1,2-dimethyl-1H-benzimidazole Oxalate] returned a melting point of 144 to 145 °C. Also, in data set [1], the inhibition in vivo at 1 µmol/kg is > 50%.

With `COCC(=O)O[C@@H]1Cc2ccccc2[C@H]1Oc1cc(C(=O)N(C)C)cc2c1nc(C)n2C` (relative stereo) [Example 13], the “Inhibition of acid secretion (%)” value in data set [1] is >50%.

`Cc1nc2c(O[C@@H]3c4ccc(Cl)cc4C[C@H]3O)cc(C(=O)N(C)C)cc2n1C.O=C(O)C(=O)O` (relative stereo) [Example 19, 4-(trans-5-Chloro-2,3-dihydro-2-hydroxy-1-indenyloxy)-6-(N,N-dimethylaminocarbonyl)-1,2-dimethyl-1H-benzimidazole Oxalate] showed a melting point of 158 to 159 °C. For the same compound, in data set [1], the inhibition in vivo at 1 µmol/kg is > 50%.

Regarding `CCc1cccc(C)c1COc1cc(C(=O)N(C)C)cc2c1nc(C)n2C` [Example 8, 6-(N,N-Dimethylaminocarbonyl)-4-(2-ethyl-6-methyl-benzyloxy)-1,2-dimethyl-1H-benzimidazole], the melting point lay in the range of 161 to 162 °C. Also, in data set [1], the inhibition in vivo at 1 µmol/kg is > 50%.

`Cc1nc2c(O[C@H]3c4ccccc4C[C@@H]3O)cc(C(=O)N(C)C)cc2n1C.O=C(O)C(=O)O` [Example 11, 4-[(1S,2S)-2,3-Dihydro-2-hydroxy-1-indenyloxy]-6-(N,N-dimethylaminocarbonyl)-1,2-dimethyl-1H-benzimidazole Oxalate] came in with a melting point of 126 to 127 °C. In addition, in data set [1], the inhibition in vivo at 1 µmol/kg was > 50%.

`CCc1cccc(C)c1CNc1cc(C(=O)NCCO)cc2c1nc(C)n2C` [Example 35, 4-(2-Ethyl-6-methyl-benzylamino)-6-(2-hydroxyethyl-aminocarbonyl)-1,2-dimethyl-1H-benzimidazole] yielded a melting point of 200 to 201 °C. Further, the inhibition in vivo at 1 µmol/kg in data set [1] is > 50%.

For `CCc1cccc(C)c1CNc1cc(C(N)=O)cc2c1nc(C)n2C` [Example 38, 4-(2-Ethyl-6-methyl-benzylamino)-1,2-dimethyl-1H-benzimidazole-6-carboxamide], the melting point fell in the range of 240 to 241 °C. For the same compound, the inhibition in vivo at 1 µmol/kg in data set [1] was > 50%.

Take `CCc1cccc(C)c1CNc1cc(C(=O)N2CCCC2)cc2c1nc(C)n2C` [Example 40, 4-(2-Ethyl-6-methyl-benzylamino)-1,2-dimethyl-6-(pyrrolidinocarbonyl)-1H-benzimidazole]: the melting point was 126 °C. Moreover, in data set [1], the inhibition in vivo at 1 µmol/kg was > 50%.

With `CCc1cccc(C)c1CNc1cc(C(=O)N2CCOCC2)cc2c1nc(C)n2C` [Example 41, 4-(2-Ethyl-6-methyl-benzylamino)-1,2-dimethyl-6-(morpholinocarbonyl)-1H-benzimidazole], the melting point fell in the range of 229 to 231 °C. Besides, the inhibition in vivo at 1 µmol/kg in data set [1] was > 50%.

Regarding `CCc1cccc(C)c1CNc1cc(C(=O)N(C)C)cc2c1nc(COC)n2C` [Example 42, 6-(N,N-Dimethylaminocarbonyl)-4-(2-ethyl-6-methyl-benzylamino)-2-methoxymethyl-1-methyl-1H-benzimidazole], the melting point is 154 °C. For the same compound, in data set [1], the inhibition in vivo at 1 µmol/kg is > 50%.

`COCc1nc2c(NCc3c(C)cccc3C)cc(C(=O)N(C)C)cc2n1C` [Example 43, 6-(N,N-Dimethylaminocarbonyl)-4-(2,6-dimethyl-benzylamino)-2-methoxymethyl-1-methyl-1H-benzimidazole] yielded a melting point of 156 to 157 °C. Moreover, in data set [1], the inhibition in vivo at 1 µmol/kg was > 50%.

With `CCc1cccc(C)c1CNc1cc(C(=O)N(C)C)cc2c1nc(C)n2C` [Example 44], the “Inhibition of acid secretion (%)” value in data set [1] was >50%.

On to `Cc1cccc(C)c1CNc1cc(S(=O)(=O)N(C)C)cc2c1nc(C)n2C` [Example 63, 7-(2,6-Dimethyl-benzylamino)-2,3-dimethyl-3H-benzimidazole-5-sulfonic acid dimethylamide], for which the melting point lay in the range of 237 to 238 °C.

For the compound `CCOC(=O)c1cc(NCc2c(C)cccc2C)c2nc(C)n(COCc3ccccc3)c2c1` [Example 64, Ethyl1-benzyloxymethyl-4-(2,6-dimethyl-benzylamino)-2-methyl-1H-benzimidazole-6-carboxylate], the melting point was in the range of 155 to 156 °C.

Take `Cc1cccc(C)c1CNc1cc(C(=O)N(C)C)cc2c1nc(C)n2COCc1ccccc1` [Example 66, 1-Benzyloxymethyl-6-(N,N-dimethylaminocarbonyl)-4-(2,6-dimethyl-benzylamino)-2-methyl-1H-benzimidazole]: the melting point is 55 to 56 °C.

In the case of `Cc1nc2c(NCc3c(C)cccc3C)cc(C(=O)N(C)C)cc2[nH]1` [Example 67, 6-(N,N-Dimethylaminocarbonyl)-4-(2,6-dimethyl-benzylamino)-2-methyl-1H-benzimidazole], the melting point turned out to be 203 °C.

Regarding `CNC(=O)c1cc(NCc2c(C)cccc2C)c2nc(C)[nH]c2c1` [Example 69, 4-(2,6-Dimethyl-benzylamino)-6-(N-methylaminocarbonyl)-2-methyl-1H-benzimidazole], the melting point worked out at 298 °C.

`Cc1cccc(CO)c1CNc1cc(C(=O)N(C)C)cc2c1nc(C)n2C` [Example 70, 6-(N,N-Dimethylaminocarbonyl)-4-(2-hydroxymethyl-6-methyl-benzylamino)-1,2-dimethyl-1H-benzimidazole] displayed a melting point of 197 to 198 °C.

Turning to `Cc1cccc(C)c1CNc1cc(C2=NCCN2)cc2c1nc(C)n2C` [Example 72, 6-(4,5-Dihydro-1H-imidazol-2-yl)-4-(2,6-dimethyl-benzylamino)-1,2-dimethyl-1H-benzimidazole], the melting point was 273 to 274 °C.

Compound `Cc1cccc(C)c1CNc1cc(C2=NCCN2C)cc2c1nc(C)n2C` [Example 73, 6-(4,5-Dihydro-1-methyl-1H-imidazol-2-yl)-4-(2,6-dimethyl-benzylamino)-1,2-dimethyl-1H-benzimidazole] returned a melting point of 118 to 119 °C.

The compound `Cc1cccc(C)c1CNc1cc(C2=NCCO2)cc2c1nc(C)n2C` [Example 74, 6-(4,5-Dihydro-oxazol-2-yl)-4-(2,6-dimethyl-benzylamino)-1,2-dimethyl-1H-benzimidazole] displayed a melting point of 235 °C.

`Cc1cccc(C)c1CNc1cc(Br)cc2c1nc(C)n2O` [Example 76, 6-Bromo-4-(2,6-dimethyl-benzylamino)-1-hydroxy-2-methyl-1H-benzimidazole] came in with a melting point of 277 °C.

`COn1c(C)nc2c(NCc3c(C)cccc3C)cc(Br)cc21` [Example 77, 6-Bromo-4-(2,6-dimethyl-benzylamino)-1-methoxy-2-methyl-1H-benzimidazole] gave a melting point of 171 to 172 °C.

As for `CCOC(=O)c1cc(NCc2c(C)cccc2C)c2nc(C)n(OC)c2c1` [Example 78, Ethyl 4-(2,6-dimethyl-benzylamino)-1-methoxy-2-methyl-1H-benzimidazole-6-carboxylate], the melting point lay in the range of 165 to 166 °C.

`COn1c(C)nc2c(NCc3c(C)cccc3C)cc(C(=O)O)cc21` [Example 79, 4-(2,6-Dimethyl-benzylamino)-1-methoxy-2-methyl-1H-benzimidazole-6-carboxylic acid] yielded a melting point of 248 to 249 °C.

`COn1c(C)nc2c(NCc3c(C)cccc3C)cc(C(=O)N(C)C)cc21` [Example 80, 6-(N,N-Dimethylamino-carbonyl)-4-(2,6-dimethyl-benzylamino)-1-methoxy-2-methyl-1H-benzimidazole]: the melting point fell in the range of 128 to 129 °C.

The compound `CC(=O)OCc1nc2c(NCc3c(C)cccc3C)cc(Br)cc2n1C` [Example 81, 2-Acetoxymethyl-6-bromo-4-(2,6-dimethyl-benzylamino)-1-methyl-1H-benzimidazole] returned a melting point of 188 to 190 °C.

The compound `Cc1cccc(C)c1CNc1cc(C(=O)N(C)C)cc2c1nc(CO)n2C` [Example 82, 6-(N,N-Dimethylaminocarbonyl)-4-(2,6-dimethyl-benzylamino)-2-hydroxymethyl-1-methyl-1H-benzimidazole] returned a melting point of 171 to 172 °C.

Take `CCc1cccc(C)c1CNc1cc(C(=O)N(C)C)cc2c1nc(CO)n2C` [Example 83, 6-(N,N-Dimethylaminocarbonyl)-4-(2-ethyl-6-methyl-benzylamino)-2-hydroxymethyl-1-methyl-1H-benzimidazole]: the melting point lay in the range of 138 to 141 °C.

Regarding `Cc1nnc(-c2cc(NCc3c(C)cccc3C)c3nc(C)n(C)c3c2)o1` [Example 85, 4-(2,6-Dimethyl-benzylamino)-6-(5-methyl-[1,3,4]oxadiazol-2yl)-1,2-dimethyl-1H-benzimidazole], the melting point is 256 to 257 °C.

Compound `CCOC(=O)c1cc(OCc2ccccc2)c2nc(C3CC3)n(C)c2c1` [Example 86, Ethyl 4-benzyloxy-2-cyclopropyl-1-methyl-1H-benzimidazole-6-carboxylate] displayed a melting point of 120 °C.

The record behind these values is patent US20060194969A1, “4-Substituted benzimidazoles and their uses as inhibitors of gastric secretion” (priority 2002, published 2006).
